Like-named read-outs stand apart in the source and are kept apart here.
Tests used:
[1] = tested on: CD54 (Intercellular Adhesion Molecule); conditions: for CD54 % compared to Negative Control (CN): THP-1, 24 h; for CD54 MFI: THP-1, 24 h at 37° C.
From the text: (§1) The purpose of the test is to assess the absence of pro-sensitizing skin effects from finished products or raw materials intended for contact with the skin or mucous membranes, such as medical devices, cosmetics, toys or textiles. In the present study, we used a human monocytes cell line (THP-1) as prototypic blood-derived immunologically active cell. On these cells, we tested the expression of two costimulatory molecules, CD54 (Intercellular Adhesion Molecule) and CD86 (B7.2), using as a positive control Nickel sulphate, a well-known contact sensitizing agent. Nickel sulphate is able to cause in vivo allergic immune reactions (skin sensitization) and it is also been widely used to study in vitro immune response modulation. As silicone elastomer (Silicone 30A—example of medical grade silicone) was tested at two concentrations, against Nickel positive controls.
(§2) The increasing expression level of CD54 and CD86 on monocytes is a signal of activation of the immune response derived from the exposition to a potentially sensitizing contact antigen. The expression of co-stimulatory molecules on the dendritic cells means activation of the immunological response in terms of capability to present the antigen in the typical tissues (skin in this case), where, in vivo, the immune protective response is triggered.
(§3) The normative reference is OECD Guideline 442E, “In vitro Skin Sensitization; Human Cell Line Activation Test (hCLAT)”, which is hereby incorporated by reference in its entirety. The method differs from the OECD Guideline as the test is performed in a single experimental session instead of three independent tests. As positive control, Nickel Sulfate is used instead of DNCB. […] In addition, the acceptance criteria and choice of concentrations to be used in the final test have been optimized according to the laboratory's historical results over the past 10 years.
(§4) The test is carried out on a monocyte-like human line called THP-1. Cells are kept in RPMI containing 10% FCS and 2 mM glutamine.
(§5) The sample has been eluted in phosphate buffered saline (1 g/5 ml) for 24 hours at 37° C. The eluted sample was diluted in the cell culture medium at different concentrations for the preliminary cytotoxicity screening on the cells aimed to decide the best concentration to test it without cytotoxic effects on the monocytes, in order to avoid false results. Cell medium exposed to the same experimental conditions were used as a negative control.
(§6) Following the results of the preliminary assay, the eluted sample was diluted directly in the cell medium at the two different dilutions in order to obtain the desired final concentrations in contact with the THP-1 cells in vitro. The exposure has been carried out for 24 h at 37° C. with 5% CO2.
(§7) After the incubation with the tested substance and the controls, cells are collected, checked under the microscope for their viability by staining with Trypan Blue dye and counting in a cell counter chamber, washed in PBS and then marked with a fluoresceinated anti-Intercellular Adhesion Molecule (CD54) or B7.2 (CD86) antibody and in both cases with a propidium iodide (PI) solution to simultaneously measure the percentage of dead cells. To this aim, a PI working solution (1 ml PI stock solution (1 mg PI/ml water) in 20 ml PI buffer (1 g glucose/l PBS without Ca/Mg)) is added to […]. A gate is set on the negative cells in order to exclude the dead cells. Only viable cells are included for analyses of CD54 or CD86 expression. After washing, to eliminate the excess antibody, the MFI (Mean Fluorescence Intensity) linked to the cells is evaluated by means of a flux cytofluorimeter (FACS, Fluorescence Activated Cell Sorter, Becton Dickinson, Mountain View, Calif.). This value is proportional to the expression of co-stimulatory molecules.
(§8) The results are expressed in terms of MFI (Mean Fluorescence Intensity).

[2] = tested on: CD86 (B7.2); conditions: for CD86 % compared to CN: THP-1, 24 h; for CD86 MFI: THP-1, 24 h at 37° C.
From the text: as §1, §2, §3, §4, §5, §6, §7, §8

[3] = tested on: THP-1 cells; type: cell-based; conditions: percent of living cells (PI negative), b192
From the text: Cell vitality: The percent of living cells (PI negative) must be above 80% in all samples.

O.O.O.O.O.O.O=S(=O)([O-])[O-].[Ni+2] [Nickel Sulfate, Nickel Sulphate (NiSO4.6H2O)]
CD54 % compared to Negative Control (CN) ([1]; 4 μg/ml): 35.74% | CD54 MFI ([1]; 4 μg/ml): 33.65 | CD54 % compared to Negative Control (CN) ([1]; 10 μg/ml): 63.61% | CD54 MFI ([1]; 10 μg/ml): 40.56 | CD54 % compared to Negative Control (CN) ([1]; 20 μg/ml): 163.94% | CD54 MFI ([1]; 20 μg/ml): 65.43 | CD86 % compared to CN ([2]; 4 μg/ml): 27.95% | CD86 MFI ([2]; 4 μg/ml): 26.32 | CD86 % compared to CN ([2]; 10 μg/ml): 146.23% | CD86 MFI ([2]; 10 μg/ml): 50.65 | CD86 % compared to CN ([2]; 20 μg/ml): 399.03% | CD86 MFI ([2]; 20 μg/ml): 102.65 | PI ([3]; 4 μg/ml): 88 | PI ([3]; 10 μg/ml): 86 | PI ([3]; 20 μg/ml): 86

Reference: patent publication US11512821B2, “Systems and method for evaluating ultraviolet-protection products” (ABICH INC., priority 2019, dated 2022)
